COC(=O)[C@H]1[C@H]2C[C@@H]3c4[nH]c5cc(OC)ccc5c4CCN3C[C@H]2C[C@@H](OC(=O)c2cc(OC)c(OC)c(OC)c2)[C@@H]1OC
Conditions | solubility (mole fraction)
in PEG-400, 298.15 K | 0.00144
in PEG-400, 308.15 K | 0.00206
in PEG-400, 318.15 K | 0.00281
in PEG-400, 328.15 K | 0.00373
in PEG-400, 338.15 K | 0.0047

solubility (mole fraction)
Conditions | in ethanol | in ethyl acetate | in ethylene glycol | in isopropanol | in propylene glycol | in transcutol | in water
298.15 K | 9.16e-06 | 0.000521 | 5.3e-05 | 2.43e-05 | 2.88e-05 | 0.000769 | 9.71e-07
308.15 K | 1.25e-05 | 0.000608 | 7.04e-05 | 3.16e-05 | 3.38e-05 | 0.000906 | 1.25e-06
318.15 K | 1.59e-05 | 0.000723 | 9.28e-05 | 4.02e-05 | 4e-05 | 0.0011 | 1.57e-06
328.15 K | 2.07e-05 | 0.000868 | 0.000114 | 4.95e-05 | 4.63e-05 | 0.00137 | 1.9e-06
338.15 K | 2.53e-05 | 0.00104 | 0.000143 | 6.07e-05 | 5.5e-05 | 0.00161 | 2.25e-06
